Test results: PMC4447944 (The Journal of Biological Chemistry, 2015)

Columns and labels:
[1] = molecular target: T1, hEPHA2 (Homo sapiens, UniProt P29317); assay: KINOMEscan; assay type: binding
T1 construct: purchased DiscoverX

[2] = molecular target: hADRβ1 (Homo sapiens, UniProt P08588); assay: cAMP Potentiation (Eurofins-CEREP); conditions: @ 10 μM
[3] = molecular target: T2, hCAMK2D (Homo sapiens, UniProt Q13557); assay: KINOMEscan; assay type: binding
T2 construct: purchased DiscoverX

[4] = molecular target: T3, hBLK (Homo sapiens, UniProt P51451); assay: KINOMEscan; assay type: binding
T3 construct: purchased DiscoverX

[5] = molecular target: T4, hTAOK1 (Homo sapiens, UniProt Q7L7X3); assay: KINOMEscan; assay type: binding
T4 construct: purchased DiscoverX

[6] = molecular target: T5, hM2 (Homo sapiens, UniProt P08172); assay: β-arrestin Agonist (Eurofins-CEREP); conditions: @ 10 μM
T5 sequence (P08172 1-466): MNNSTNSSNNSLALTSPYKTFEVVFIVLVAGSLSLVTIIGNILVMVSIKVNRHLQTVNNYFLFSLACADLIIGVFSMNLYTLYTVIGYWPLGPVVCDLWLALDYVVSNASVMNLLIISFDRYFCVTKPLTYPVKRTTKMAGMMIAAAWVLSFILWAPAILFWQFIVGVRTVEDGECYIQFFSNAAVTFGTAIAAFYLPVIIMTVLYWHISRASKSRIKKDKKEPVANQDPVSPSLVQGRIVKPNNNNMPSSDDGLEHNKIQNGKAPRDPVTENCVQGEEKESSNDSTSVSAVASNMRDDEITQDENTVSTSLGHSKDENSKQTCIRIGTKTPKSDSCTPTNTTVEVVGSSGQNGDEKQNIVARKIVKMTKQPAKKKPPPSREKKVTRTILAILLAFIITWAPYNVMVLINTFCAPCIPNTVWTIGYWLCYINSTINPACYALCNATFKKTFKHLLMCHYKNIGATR

[7] = molecular target: T6, h5HT2B (Homo sapiens, UniProt P41595); assay: Calcium Mobilization Potentiation (Eurofins-CEREP); conditions: @ 10 μM
[8] = molecular target: T7, hMAPKAPK5 (Homo sapiens, UniProt Q8IW41); assay: KINOMEscan; assay type: binding
T7 construct: purchased DiscoverX

[9] = molecular target: T8, hERK3 (Homo sapiens, UniProt Q16659); assay: KINOMEscan; assay type: binding
T8 construct: purchased DiscoverX

[10] = molecular target: T9, bacPKNB (Mycobacterium tuberculosis, UniProt P9WI81); assay: KINOMEscan; assay type: binding
T9 construct: purchased DiscoverX

[11] = molecular target: T10, hMAP3K4 (Homo sapiens, UniProt Q9Y6R4); assay: KINOMEscan; assay type: binding
T10 construct: purchased DiscoverX (KINOMEscan platform)

[12] = molecular target: T11, hYSK4 (Homo sapiens, UniProt Q56UN5); assay: KINOMEscan; assay type: binding
T11 construct: purchased DiscoverX

[13] = molecular target: T12, hCSK (Homo sapiens, UniProt P41240); assay: KINOMEscan; assay type: binding
T12 construct: purchased DiscoverX (KINOMEscan platform)

[14] = molecular target: T13, hADRα1A (Homo sapiens, UniProt P35348); assay: Calcium Mobilization Potentiation (Eurofins-CEREP); conditions: @ 10 μM
T13 sequence (P35348 1-466): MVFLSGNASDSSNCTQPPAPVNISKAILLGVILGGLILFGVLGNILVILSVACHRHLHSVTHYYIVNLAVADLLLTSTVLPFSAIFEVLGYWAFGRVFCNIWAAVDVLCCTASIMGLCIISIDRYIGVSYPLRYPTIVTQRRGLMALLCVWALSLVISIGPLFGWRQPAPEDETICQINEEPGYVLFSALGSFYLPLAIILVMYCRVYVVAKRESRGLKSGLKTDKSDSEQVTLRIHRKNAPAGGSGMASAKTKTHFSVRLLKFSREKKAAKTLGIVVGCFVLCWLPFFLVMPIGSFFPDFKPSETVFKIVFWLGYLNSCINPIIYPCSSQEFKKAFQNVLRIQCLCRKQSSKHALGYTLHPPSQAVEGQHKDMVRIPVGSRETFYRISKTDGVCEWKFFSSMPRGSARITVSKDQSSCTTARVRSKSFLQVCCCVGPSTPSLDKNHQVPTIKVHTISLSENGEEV

[15] = molecular target: T14, hDRAK2 (Homo sapiens, UniProt O94768); assay: KINOMEscan; assay type: binding
T14 construct: purchased DiscoverX

[16] = molecular target: T15, hJNK1 (Homo sapiens, UniProt P45983); assay: KINOMEscan; assay type: binding
T15 construct: purchased DiscoverX (KINOMEscan panel)

[17] = molecular target: T16, CYP2D6 (Homo sapiens, UniProt P10635); assay: Cytochrome p450 inhibition (Eurofins-CEREP); assay type: in vitro ADME
T16 construct: Eurofins-CEREP

[18] = molecular target: hOPRm1 (Homo sapiens, UniProt P35372); assay: cAMP Potentiation (Eurofins-CEREP); conditions: @ 1 μM
[19] = molecular target: T6, h5HT2B; assay: Calcium Mobilization Antagonist (Eurofins-CEREP); conditions: read-out: % Effect, Inhibition
[20] = molecular target: T17, hDCAMKL3 (Homo sapiens, UniProt Q9C098); assay: KINOMEscan; assay type: binding
T17 construct: purchased DiscoverX (KINOMEscan platform)
T17 sequence (Q9C098 whole entry): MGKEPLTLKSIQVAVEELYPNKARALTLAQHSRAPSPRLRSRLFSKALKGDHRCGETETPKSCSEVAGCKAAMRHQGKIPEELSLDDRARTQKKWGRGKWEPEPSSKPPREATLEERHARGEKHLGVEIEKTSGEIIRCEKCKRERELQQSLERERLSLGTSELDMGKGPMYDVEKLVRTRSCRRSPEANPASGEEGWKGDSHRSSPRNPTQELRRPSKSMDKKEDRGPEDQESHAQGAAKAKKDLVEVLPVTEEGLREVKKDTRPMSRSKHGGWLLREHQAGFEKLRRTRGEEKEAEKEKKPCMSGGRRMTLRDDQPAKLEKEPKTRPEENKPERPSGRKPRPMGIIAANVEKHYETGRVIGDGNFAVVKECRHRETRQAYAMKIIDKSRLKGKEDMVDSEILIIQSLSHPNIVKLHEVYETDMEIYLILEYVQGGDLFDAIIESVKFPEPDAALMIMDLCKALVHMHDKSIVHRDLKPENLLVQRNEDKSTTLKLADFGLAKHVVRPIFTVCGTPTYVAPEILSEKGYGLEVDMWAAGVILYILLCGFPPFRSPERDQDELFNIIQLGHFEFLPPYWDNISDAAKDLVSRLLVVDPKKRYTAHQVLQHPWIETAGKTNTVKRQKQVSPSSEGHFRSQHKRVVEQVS

T6 sequence (P41595 whole entry): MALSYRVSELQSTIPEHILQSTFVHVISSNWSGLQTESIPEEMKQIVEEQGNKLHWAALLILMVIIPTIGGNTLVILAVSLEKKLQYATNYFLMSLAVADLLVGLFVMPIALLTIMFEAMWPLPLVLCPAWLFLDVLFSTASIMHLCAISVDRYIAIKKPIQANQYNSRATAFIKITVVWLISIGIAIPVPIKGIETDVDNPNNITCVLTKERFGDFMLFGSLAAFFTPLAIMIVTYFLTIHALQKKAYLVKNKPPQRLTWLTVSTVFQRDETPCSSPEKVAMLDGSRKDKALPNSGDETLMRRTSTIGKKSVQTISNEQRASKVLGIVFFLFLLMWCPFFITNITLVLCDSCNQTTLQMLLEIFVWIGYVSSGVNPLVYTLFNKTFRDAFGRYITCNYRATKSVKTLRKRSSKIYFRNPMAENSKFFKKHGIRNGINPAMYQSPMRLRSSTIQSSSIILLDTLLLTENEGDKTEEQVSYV
T3 sequence (P51451 whole entry): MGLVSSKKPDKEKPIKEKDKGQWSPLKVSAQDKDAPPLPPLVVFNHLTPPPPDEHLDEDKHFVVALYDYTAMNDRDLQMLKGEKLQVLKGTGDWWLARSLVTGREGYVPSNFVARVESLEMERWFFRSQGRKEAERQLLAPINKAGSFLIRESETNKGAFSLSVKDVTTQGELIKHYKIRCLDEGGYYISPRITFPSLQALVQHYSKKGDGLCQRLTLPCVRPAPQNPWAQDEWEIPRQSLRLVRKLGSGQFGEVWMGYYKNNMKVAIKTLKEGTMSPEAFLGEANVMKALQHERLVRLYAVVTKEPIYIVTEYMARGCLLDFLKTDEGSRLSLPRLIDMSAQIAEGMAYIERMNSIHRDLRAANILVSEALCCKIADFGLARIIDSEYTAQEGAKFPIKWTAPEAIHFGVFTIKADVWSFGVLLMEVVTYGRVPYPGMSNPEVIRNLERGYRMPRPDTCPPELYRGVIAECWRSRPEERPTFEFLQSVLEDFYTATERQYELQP
T7 sequence (Q8IW41 whole entry): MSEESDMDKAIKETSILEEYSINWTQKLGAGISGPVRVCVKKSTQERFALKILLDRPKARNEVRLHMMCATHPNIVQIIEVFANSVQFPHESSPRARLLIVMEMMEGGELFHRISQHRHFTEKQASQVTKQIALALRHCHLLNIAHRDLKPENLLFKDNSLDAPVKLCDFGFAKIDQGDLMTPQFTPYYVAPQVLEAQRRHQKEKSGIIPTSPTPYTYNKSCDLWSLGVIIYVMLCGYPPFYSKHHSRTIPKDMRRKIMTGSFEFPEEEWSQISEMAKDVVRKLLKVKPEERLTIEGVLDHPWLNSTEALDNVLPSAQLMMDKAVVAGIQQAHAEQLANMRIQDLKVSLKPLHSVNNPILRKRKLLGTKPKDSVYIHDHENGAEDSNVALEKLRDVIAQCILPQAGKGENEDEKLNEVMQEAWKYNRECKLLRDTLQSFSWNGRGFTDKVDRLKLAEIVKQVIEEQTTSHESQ
T10 sequence (Q9Y6R4 whole entry): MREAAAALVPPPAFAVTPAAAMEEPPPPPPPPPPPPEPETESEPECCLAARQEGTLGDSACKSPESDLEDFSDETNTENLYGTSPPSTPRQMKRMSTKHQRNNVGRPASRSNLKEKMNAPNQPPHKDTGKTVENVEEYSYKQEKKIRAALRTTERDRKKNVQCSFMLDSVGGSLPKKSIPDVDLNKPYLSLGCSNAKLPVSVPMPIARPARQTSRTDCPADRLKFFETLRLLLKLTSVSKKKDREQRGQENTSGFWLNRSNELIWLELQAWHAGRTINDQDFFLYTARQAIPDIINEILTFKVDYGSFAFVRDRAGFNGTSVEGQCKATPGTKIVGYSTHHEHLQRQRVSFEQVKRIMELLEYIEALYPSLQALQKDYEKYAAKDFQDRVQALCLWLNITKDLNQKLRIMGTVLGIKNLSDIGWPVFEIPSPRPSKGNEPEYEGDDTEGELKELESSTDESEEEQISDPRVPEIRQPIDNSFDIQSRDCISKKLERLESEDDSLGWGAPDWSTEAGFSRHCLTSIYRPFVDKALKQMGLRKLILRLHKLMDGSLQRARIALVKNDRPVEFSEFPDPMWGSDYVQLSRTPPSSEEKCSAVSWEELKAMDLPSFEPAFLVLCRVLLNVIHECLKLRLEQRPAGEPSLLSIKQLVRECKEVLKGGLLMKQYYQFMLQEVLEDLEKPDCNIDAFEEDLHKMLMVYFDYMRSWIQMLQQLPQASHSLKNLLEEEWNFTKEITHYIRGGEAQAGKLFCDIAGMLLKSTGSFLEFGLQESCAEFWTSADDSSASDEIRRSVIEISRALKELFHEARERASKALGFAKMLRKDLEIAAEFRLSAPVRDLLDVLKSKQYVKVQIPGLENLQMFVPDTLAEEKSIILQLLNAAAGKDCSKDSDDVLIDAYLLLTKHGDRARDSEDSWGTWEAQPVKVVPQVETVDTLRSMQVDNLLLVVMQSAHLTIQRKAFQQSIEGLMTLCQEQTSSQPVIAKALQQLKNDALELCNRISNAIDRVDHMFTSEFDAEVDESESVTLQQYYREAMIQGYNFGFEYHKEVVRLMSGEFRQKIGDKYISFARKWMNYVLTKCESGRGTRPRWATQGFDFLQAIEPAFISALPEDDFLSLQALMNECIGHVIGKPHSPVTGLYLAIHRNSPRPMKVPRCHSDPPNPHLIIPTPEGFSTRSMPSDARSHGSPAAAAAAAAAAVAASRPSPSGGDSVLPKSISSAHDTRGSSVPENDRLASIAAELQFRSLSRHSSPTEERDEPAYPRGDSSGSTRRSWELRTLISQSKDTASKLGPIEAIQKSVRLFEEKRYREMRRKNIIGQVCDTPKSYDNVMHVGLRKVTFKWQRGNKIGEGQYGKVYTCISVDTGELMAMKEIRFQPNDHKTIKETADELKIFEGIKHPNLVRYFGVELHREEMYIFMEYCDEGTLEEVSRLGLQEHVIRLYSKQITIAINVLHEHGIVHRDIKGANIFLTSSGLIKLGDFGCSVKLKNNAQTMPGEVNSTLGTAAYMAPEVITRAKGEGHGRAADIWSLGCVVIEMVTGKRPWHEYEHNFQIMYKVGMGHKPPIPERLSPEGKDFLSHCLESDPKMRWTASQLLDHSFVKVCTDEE
T9 sequence (P9WI81 whole entry): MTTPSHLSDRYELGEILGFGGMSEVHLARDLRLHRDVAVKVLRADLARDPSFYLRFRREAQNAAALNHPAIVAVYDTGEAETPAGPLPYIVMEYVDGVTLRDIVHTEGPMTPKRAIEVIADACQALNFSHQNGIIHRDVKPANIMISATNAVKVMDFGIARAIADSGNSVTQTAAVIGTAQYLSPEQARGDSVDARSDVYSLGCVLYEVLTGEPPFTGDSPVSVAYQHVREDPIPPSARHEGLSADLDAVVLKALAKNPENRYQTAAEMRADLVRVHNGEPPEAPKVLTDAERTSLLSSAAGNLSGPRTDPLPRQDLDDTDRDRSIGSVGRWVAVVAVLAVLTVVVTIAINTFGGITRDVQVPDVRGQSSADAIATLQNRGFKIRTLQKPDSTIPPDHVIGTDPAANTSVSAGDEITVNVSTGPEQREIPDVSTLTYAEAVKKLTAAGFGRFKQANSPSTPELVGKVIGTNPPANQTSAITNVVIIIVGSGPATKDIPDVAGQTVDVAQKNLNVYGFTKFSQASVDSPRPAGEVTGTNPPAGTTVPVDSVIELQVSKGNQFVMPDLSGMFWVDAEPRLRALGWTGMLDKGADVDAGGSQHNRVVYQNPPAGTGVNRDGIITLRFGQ
T12 sequence (P41240 whole entry): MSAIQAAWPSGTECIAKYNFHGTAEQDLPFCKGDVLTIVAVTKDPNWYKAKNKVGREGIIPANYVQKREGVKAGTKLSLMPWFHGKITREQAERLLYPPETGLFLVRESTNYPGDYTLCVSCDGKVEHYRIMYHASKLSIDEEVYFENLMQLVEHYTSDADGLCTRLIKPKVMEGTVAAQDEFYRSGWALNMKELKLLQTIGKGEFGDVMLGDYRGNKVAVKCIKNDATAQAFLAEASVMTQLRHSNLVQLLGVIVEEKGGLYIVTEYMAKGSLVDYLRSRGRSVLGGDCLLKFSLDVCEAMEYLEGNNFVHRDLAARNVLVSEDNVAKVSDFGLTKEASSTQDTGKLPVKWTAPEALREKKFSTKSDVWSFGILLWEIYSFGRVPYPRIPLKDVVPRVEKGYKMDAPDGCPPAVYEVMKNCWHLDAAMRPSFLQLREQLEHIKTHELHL

Cc1cn(CCN2CCN(c3ccccc3-c3cc(C#N)cc(C(=O)NCCCN4CCCC4)c3)CC2)c2ccccc12 [LLY-507, 3-cyano-5-{2-[4-[2-(3-methylindol-1-yl)ethyl]piperazin-1-yl]-phenyl}-N-[(3-pyrrolidin-1-yl)propyl]benzamide]
IC50 [1]: > 20 µM | % Effect, Potentiation [2]: 32.1% | IC50 [3]: > 20 µM | IC50 [4]: > 20 µM | IC50 [5]: > 20 µM | % Effect, Stimulation [6]: 5.1% | % Effect, Potentiation [7]: -7.3% | IC50 [8]: > 20 µM | IC50 [9]: > 20 µM | IC50 [10]: > 20 µM | IC50 [11]: > 20 µM | IC50 [12]: > 20 µM | IC50 [13]: > 20 µM | % Effect, Potentiation [14]: -7.9% | IC50 [15]: > 20 µM | IC50 [16]: > 20 µM | % inhibition @ 10 μM [17]: 61.2% | % Effect, Potentiation [18]: 9.6% | inhibition at 10 µM [19]: 6.8% | IC50 [20]: > 20 µM
